Data on four molecules can be found in ChEMBL document CHEMBL4184156, “Repurposing Hsp90 inhibitors as antibiotics targeting histidine kinases” (Bioorg Med Chem Lett, 2017).

Data set [1] addresses Cell cycle histidine kinase CckA (Caulobacter vibrioides, UniProt Q9X688). Kind of data set: Inhibition of recombinant Caulobacter vibrioides cell cycle histidine kinase CckA deltaTM mutant DHp domain (70 to 691 residues) expressed in Escherichia coli in presence of varying levels of ATP measured every 60 secs for 2 hrs by PK/LDH enzyme coupled assay.
The target in data set [2] is T1, Virulence sensor histidine kinase PhoQ (Salmonella typhimurium (strain LT2 / SGSC1412 / ATCC 700720)) (UniProt P0DM80).
T1 sequence (whole entry): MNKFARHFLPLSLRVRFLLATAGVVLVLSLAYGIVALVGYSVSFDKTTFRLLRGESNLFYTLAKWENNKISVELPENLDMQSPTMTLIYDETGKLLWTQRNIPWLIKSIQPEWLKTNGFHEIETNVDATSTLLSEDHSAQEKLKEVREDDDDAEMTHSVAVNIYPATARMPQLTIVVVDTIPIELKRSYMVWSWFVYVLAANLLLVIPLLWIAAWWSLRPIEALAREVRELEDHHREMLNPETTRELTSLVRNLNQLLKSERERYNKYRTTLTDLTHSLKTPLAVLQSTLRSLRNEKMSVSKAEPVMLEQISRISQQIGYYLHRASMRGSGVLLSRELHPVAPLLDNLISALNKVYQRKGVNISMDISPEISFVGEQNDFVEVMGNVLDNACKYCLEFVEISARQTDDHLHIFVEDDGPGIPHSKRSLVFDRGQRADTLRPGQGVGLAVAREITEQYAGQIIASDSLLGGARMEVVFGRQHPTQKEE
Description: Inhibition of recombinant Salmonella typhimurium N-terminal His6-SUMO-tagged DHp-catalytic domain PhoQ (257 to 487 residues) autophosphorylation expressed in Escherichia coli BL21(DE3) at 500 uM preincubated for 10 mins followed by [gamma-32P]-ATP addition after 30 mins by phosphotransferase dot blot assay relative to control. Particulars: Salmonella enterica subsp. enterica serovar Typhimurium. The arrangement: scale not given: the % may be the effect or the level left.

The next data set concerns Escherichia coli. Kind of data set: Antibacterial activity against Escherichia coli DC2 after 24 hrs by broth dilution method. The format is functional. Particulars: DC2, 24 h.
The target of data set [3] is T2, Histidine protein kinase DivJ (Caulobacter vibrioides (strain ATCC 19089 / CB15) (Caulobactercrescentus)) (UniProt Q03228).
T2 sequence (whole entry): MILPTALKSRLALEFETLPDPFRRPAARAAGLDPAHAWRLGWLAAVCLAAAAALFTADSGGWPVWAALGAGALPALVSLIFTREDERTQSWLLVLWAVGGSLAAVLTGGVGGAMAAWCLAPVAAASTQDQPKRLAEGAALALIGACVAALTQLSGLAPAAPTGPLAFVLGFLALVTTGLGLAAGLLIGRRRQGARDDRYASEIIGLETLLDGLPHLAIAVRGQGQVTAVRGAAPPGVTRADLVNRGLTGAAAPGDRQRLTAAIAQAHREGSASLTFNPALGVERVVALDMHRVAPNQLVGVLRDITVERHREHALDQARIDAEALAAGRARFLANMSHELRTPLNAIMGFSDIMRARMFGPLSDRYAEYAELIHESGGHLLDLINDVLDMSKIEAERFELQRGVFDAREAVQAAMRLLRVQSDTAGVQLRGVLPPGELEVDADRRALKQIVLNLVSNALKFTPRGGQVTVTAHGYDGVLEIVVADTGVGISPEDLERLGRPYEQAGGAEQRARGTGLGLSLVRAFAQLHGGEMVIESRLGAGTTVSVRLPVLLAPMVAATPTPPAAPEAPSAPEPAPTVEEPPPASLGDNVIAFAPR
Description: Inhibition of recombinant Caulobacter vibrioides N-terminal His6-tagged DHp-catalytic domain DivJ (188 to 585 residues) autophosphorylation expressed in Escherichia coli BL21(DE3) at 500 uM preincubated for 10 mins followed by [gamma-32P]-ATP addition after 15 mins by phosphotransferase dot blot assay relative to control. The arrangement: scale not given: the % may be the effect or the level left.

The subject of the next data set is Bacillus subtilis. Kind of data set: Antibacterial activity against Bacillus subtilis YB886 after 24 hrs by broth dilution method. It is filed as functional. Particulars: YB886, 24 h. A general note: Broth dilution looks for growth in wells or tubes with falling amounts of substance.
Data set [4] can be described thus: Inhibition of recombinant full length yeast N-terminal His-tagged Hsp90 expressed in Escherichia coli BL21 incubated overnight in presence of ATP by malachite green dye based assay. More on the design: species or system Saccharomyces cerevisiae.
A short description of data set [5]: Hemolytic activity against sheep RBC at 0.5 mM after 30 mins relative to control. It is filed as ADME, cell-based, Ovis aries, Erythrocyte. The settings on record: sheep red blood cells (erythrocytes), read-out: Activity.
Another data set deals with Caulobacter vibrioides. Kind of data set: Antibacterial activity against Caulobacter crescentus NA1000 after 24 hrs by broth dilution method. The format is functional. Particulars: NA1000, 24 h.
Data set [6] has as its target T3, Cell cycle histidine kinase CckA (Caulobacter vibrioides) (UniProt Q9X688).
T3 sequence (whole entry): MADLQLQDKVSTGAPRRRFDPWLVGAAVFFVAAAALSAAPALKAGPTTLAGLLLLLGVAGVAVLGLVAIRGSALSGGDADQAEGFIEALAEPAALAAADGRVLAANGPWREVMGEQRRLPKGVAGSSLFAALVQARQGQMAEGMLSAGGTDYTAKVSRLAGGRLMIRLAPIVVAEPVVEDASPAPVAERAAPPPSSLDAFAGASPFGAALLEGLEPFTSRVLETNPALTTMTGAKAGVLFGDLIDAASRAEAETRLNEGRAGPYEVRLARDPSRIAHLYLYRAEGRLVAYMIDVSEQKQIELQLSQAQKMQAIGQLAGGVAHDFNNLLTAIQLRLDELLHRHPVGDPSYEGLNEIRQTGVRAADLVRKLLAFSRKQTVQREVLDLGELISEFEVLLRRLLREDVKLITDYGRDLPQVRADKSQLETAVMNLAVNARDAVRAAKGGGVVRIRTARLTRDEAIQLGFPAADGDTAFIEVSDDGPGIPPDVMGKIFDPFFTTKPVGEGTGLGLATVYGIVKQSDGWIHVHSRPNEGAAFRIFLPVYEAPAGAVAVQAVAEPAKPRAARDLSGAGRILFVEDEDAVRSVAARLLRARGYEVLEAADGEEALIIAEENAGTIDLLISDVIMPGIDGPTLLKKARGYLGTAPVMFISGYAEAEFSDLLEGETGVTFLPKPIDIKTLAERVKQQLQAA
Kind of data set: Binding affinity to recombinant Caulobacter vibrioides cell cycle histidine kinase CckA delta 3 mutant DHp domain (190 to 562 residues) expressed in Escherichia coli assessed as change in metlting temperature at 30 uM after 2 mins by SYPRO orange dye based DSF assay. In general terms: Differential scanning fluorimetry follows unfolding on heating by fluorescence.

The target of data set [7] is T2, Histidine protein kinase DivJ (Caulobacter vibrioides (strain ATCC 19089 / CB15) (Caulobactercrescentus)). Description: Inhibition of recombinant Caulobacter vibrioides N-terminal His6-tagged DHp-catalytic domain DivJ (188 to 585 residues) expressed in Escherichia coli BL21 (DE3) at 400 uM preincubated for 10 mins followed by [gamma-32P]-ATP addition after 15 mins by phosphotransferase dot blot assay.

For data set [8], the target named is T1, Virulence sensor histidine kinase PhoQ (Salmonella typhimurium (strain LT2 / SGSC1412 / ATCC 700720)). Description: Inhibition of recombinant Salmonella typhimurium N-terminal His6-SUMO-tagged PhoQ (257 to 487 residues) expressed in Escherichia coli BL21 (DE3) assessed as enzyme aggregation at 800 uM after 30 mins by native-PAGE analysis. Particulars: Salmonella enterica subsp. enterica serovar Typhimurium.

Data set [9] addresses T2, Histidine protein kinase DivJ (Caulobacter vibrioides (strain ATCC 19089 / CB15) (Caulobactercrescentus)). Kind of data set: Inhibition of recombinant Caulobacter vibrioides N-terminal His6-tagged DHp-catalytic domain DivJ (188 to 585 residues) expressed in Escherichia coli BL21 (DE3) at 800 uM preincubated for 10 mins followed by [gamma-32P]-ATP addition after 15 mins by phosphotransferase dot blot assay.

Data set [10] deals with T1, Virulence sensor histidine kinase PhoQ (Salmonella typhimurium (strain LT2 / SGSC1412 / ATCC 700720)). Kind of data set: Inhibition of recombinant Salmonella typhimurium N-terminal His6-SUMO-tagged PhoQ (257 to 487 residues) expressed in Escherichia coli BL21 (DE3) assessed as enzyme aggregation at 400 uM after 30 mins by native-PAGE analysis. The settings on record: Salmonella enterica subsp. enterica serovar Typhimurium.

Data set [11] has as its system Histidine protein kinase DivJ (Caulobacter vibrioides). Kind of data set: Inhibition of recombinant Caulobacter vibrioides N-terminal His6-tagged catalytic domain DivJ (188 to 585 residues) expressed in Escherichia coli BL21 (DE3) assessed as enzyme aggregation at 400 uM after 30 mins by native-PAGE analysis.
Compound in data set [12]: COc1ccc(-c2c(C)n[nH]c2-c2cc(Cl)c(O)cc2O)cc1
Kind of data set: Competitive inhibition of Caulobacter vibrioides full length wild type Cell cycle histidine kinase CckA deltaTM expressed in Escherichia coli BL21-AI assessed as enzyme Km in presence of varying levels of ATP measured every 60 secs for 2 hrs by Lineweaver-Burk plot analysis.

By IC50 is commonly meant the concentration that inhibits the measured activity by half. In general, MIC refers to the lowest concentration that inhibits growth of the organism. Broadly, the ΔTm is the change in melting temperature against a reference sample. In general, Km refers to the concentration of substrate that gives half-maximal velocity.

In brackets after ≈: the same amount, converted by molar mass. Activity calls are given as the source filed them. The rule behind the calls is not given here. A value given as a limit tells only on which side of the number the result lay.

On to `C[C@@H]1C[C@H]2O[C@@H]2/C=C\C=C\C(=O)Cc2c(Cl)c(O)cc(O)c2C(=O)O1` [RADICICOL], for which the half-inhibitory concentration (IC50) in data set [1] came to 184 µM; in data set [4] it was 0.26 µM. Besides, the Activity in data set [2] turned out to be 86%; in data set [3], 123%. In addition, the MIC against Escherichia coli, in the data set on Bacillus subtilis and in the data set on Caulobacter vibrioides was more than 300 µM in each case. Besides, the hemolysis at 0.5 h, 500 µM in [5] came out at 0%. Besides, the shift in melting temperature (ΔTm) in data set [6] came to 0.9 °C.
For the molecule `CCc1cc(-c2[nH]nc(C)c2-c2ccc3c(c2)OCCO3)c(O)cc1O`, the values for the Activity in [2] and in data set [3] were 9% and 70%, respectively. Moreover, the inhibition entry in [7], in data set [8] and in data set [10] was “inactive” throughout. For the same molecule, the minimal inhibitory concentration (MIC) is 37.5 to 75 µM (≈ 13.2 to 26.4 µg/mL) against Escherichia coli, 112 µM (≈ 39.6 µg/mL) in the data set with Bacillus subtilis and 150 to 225 µM (≈ 52.9 to 79.3 µg/mL) against Caulobacter vibrioides. For the same molecule, in [9], the inhibition result is “Active”. Also, the thermal shift (ΔTm) in [6] was found to be 4 °C.
Regarding `COc1ccc(-c2c(C)n[nH]c2-c2cc(Cl)c(O)cc2O)cc1`, the Activity in data set [2] turned out to be 66%; in data set [3], 118%. The MIC was 37.5 to 75 µM (≈ 12.4 to 24.8 µg/mL) against Escherichia coli, 150 to 225 µM (≈ 49.6 to 74.4 µg/mL) against Bacillus subtilis and 225 µM (≈ 74.4 µg/mL) against Caulobacter vibrioides. Also, the inhibition result in data set [11] and in [10] was “inactive” each time. In addition, the shift in melting temperature (ΔTm) in data set [6] came to 5 °C.

B1: Cell cycle histidine kinase CckA (Caulobacter vibrioides), Q9X688 (protein)
chain: MADLQLQDKVSTGAPRRRFDPWLVGAAVFFVAAAALSAAPALKAGPTTLAGLLLLLGVAGVAVLGLVAIRGSALSGGDADQAEGFIEALAEPAALAAADGRVLAANGPWREVMGEQRRLPKGVAGSSLFAALVQARQGQMAEGMLSAGGTDYTAKVSRLAGGRLMIRLAPIVVAEPVVEDASPAPVAERAAPPPSSLDAFAGASPFGAALLEGLEPFTSRVLETNPALTTMTGAKAGVLFGDLIDAASRAEAETRLNEGRAGPYEVRLARDPSRIAHLYLYRAEGRLVAYMIDVSEQKQIELQLSQAQKMQAIGQLAGGVAHDFNNLLTAIQLRLDELLHRHPVGDPSYEGLNEIRQTGVRAADLVRKLLAFSRKQTVQREVLDLGELISEFEVLLRRLLREDVKLITDYGRDLPQVRADKSQLETAVMNLAVNARDAVRAAKGGGVVRIRTARLTRDEAIQLGFPAADGDTAFIEVSDDGPGIPPDVMGKIFDPFFTTKPVGEGTGLGLATVYGIVKQSDGWIHVHSRPNEGAAFRIFLPVYEAPAGAVAVQAVAEPAKPRAARDLSGAGRILFVEDEDAVRSVAARLLRARGYEVLEAADGEEALIIAEENAGTIDLLISDVIMPGIDGPTLLKKARGYLGTAPVMFISGYAEAEFSDLLEGETGVTFLPKPIDIKTLAERVKQQLQAA
Take B1: the Km in data set [12] came out at 17.9 µM.
